Reference: patent publication US5219884A, “Immunosuppressant” (Taito Co., Ltd., priority 1990, dated 1993)
Like-named read-outs stand apart in the source and are kept apart here.

Assays:
[1] = test system: IL3 production in mouse allogenic MLC; assay: suppression of IL3 production in mouse allogenic MLC; type: cell-based; settings: for inhibition at 0.01 µg/mL / inhibition at 0.1 µg/mL / inhibition at 1 µg/mL / inhibition at 10 µg/mL: Mus musculus, read-out: Suppression
Method: (§1) The supernatant of mouse allogenic MLC and the supernatant of PHA-stimulated mouse spleen cells culture were prepared in the same manner as in Experimental Example 6.
(§2) The IL3 activity in the supernatant described above was assayed as follows: IL3-dependent mouse cell line FDC-P2 cells were suspended in the RPMI1640 culture medium supplemented with 10% FCS to the concentration of 10^5 cells/ml, and 100 μl of the suspension was added to each well of 96-well microculture plates in which 100 μl per well of the two-fold serial dilutions of the supernatant described above had been placed. After culturing at 37° C. in an atmosphere of 5% carbon dioxide for 20 hours, 0.5 μCi/well of ^3 H-thymidine was added, and cultured for further 4 hours under the same conditions. After termination of the culture, the cells were harvested by a cell harvester, and the radioactivity incorporated into the cells was measured by a liquid scintillation counter. The IL3 activity was expressed in U/ml as the titer at the concentrations at which the amount of ^3 H-thymidine incorporated was 50% of the maximum.

[2] = test system: IL2 production in PHA-stimulated mouse spleen cells; assay: suppression of IL2 production in PHA-stimulated mouse spleen cells; type: cell-based; settings: for inhibition at 0.01 µg/mL / inhibition at 0.1 µg/mL / inhibition at 1 µg/mL / inhibition at 10 µg/mL: Mus musculus, 24 h, read-out: Suppression
Method: Culture of PHA-stimulated mouse spleen cells was carried out as follows: PHA (1/100 dilution) was added to the BALB/c mouse spleen cells suspension prepared in the same way as in Experimental Example 4. The cell suspension (1 ml) and 1 ml of the test substance were added to 24-well multidishes, and cultured at 37° C. in an atmosphere of 5% carbon dioxide for 24 hours. After termination of the culture, the supernatant was collected and used as the supernatant of PHA-stimulated cultures.
The IL2 activity in the supernatants of mouse allogenic MLC and the supernatants of PHA-stimulated mouse spleen cells culture was assayed as follows: IL2-dependent mouse cell line CTLL-2 cells were suspended in the RPMI1640 culture medium supplemented with 30% FCS to the concentration of 10^5 cells/ml, and 100 μl of the suspension was added to each well of 96-well microculture plates in which 100 μl of the supernatant of the MLC described above had been placed. After culturing at 37° C. in an atmosphere of 5% carbon dioxide for 20 hours, 0.5 μCi/well of ^3 H-thymidine was added, and incubated for 4 hours under the same conditions. After termination of the culture, the cells were harvested by a cell harvester, and the radioactivity incorporated into the cells was measured by a liquid scintillation counter. IL2 activity was expressed in U/ml as the titer at various concentrations at which the ^3 H-thymidine incorporation was 50% of the maximum.

[3] = test system: mouse spleen cells stimulated with pokeweed mitogen (PWM); assay: suppression of blastogenic response of mouse spleen cells by PWM; type: cell-based; settings: for inhibition at 0.1 µg/mL / inhibition at 0.01 µg/mL / inhibition at 1 µg/mL: Mus musculus, 76 h; for inhibition at 0.1 µg/mL: read-out: Suppression
Method: The effect on the mouse blastogenic response of mouse spleen cells stimulated with phytohemagglutinin (PHA) or with pokeweed mitogen (PWM) was examined as follows:
The spleen was resected from 5- to 8-week-old male […] BALB/c mice, and single cell suspension of spleen cells was prepared by using the RPMI1640 culture medium supplemented with 5% FCS. After hemolytic treatment, the concentration of the suspension was adjusted to 5×10^6 cells/ml by using the RPMI1640 culture medium supplemented with 10^-4 M 2-mercaptoethanol and 20% FCS, to which PHA or PWM was added. One hundred μl of the cell suspension was added to each well of 96-well microculture plates to which 100 μl per well of the test solution had been added (5×10^5 mouse spleen cells per well). After culturing at 37° C. in an atmosphere of 5% carbon dioxide for 72 hours, 0.5 μCi/well of ^3 H-thymidine was added and cultured under the same conditions for further 4 hours. After termination of the culture, the cells were harvested by a cell harvester, and the radioactivity incorporated into the cells was measured by a liquid scintillation counter, which was used as the index of blastogenic response of mouse spleen cells.

[4] = test system: IL3 production in PHA-stimulated mouse spleen cells; assay: suppression of IL3 production in PHA-stimulated mouse spleen cells; type: cell-based; settings: for inhibition at 0.01 µg/mL / inhibition at 0.1 µg/mL / inhibition at 1 µg/mL / inhibition at 10 µg/mL: Mus musculus, read-out: Suppression
Method: as §1, §2

[5] = test system: PC-6; assay: cytotoxicity to tumor cell line PC-6; type: cell-based, human
Method: (§3) Cytotoxicity to human tumor cell lines was examined as follows:
(§4) Cells of human cell lines, K562, MOLT4, U937, HL60, KATOIII, KB, PC-6, PC-14 and CCRF-CEM were separately suspended to the concentration of 2×10^5 cells/ml in the RPMI1640 culture medium supplemented with 20% FCS. Fifty μl of this suspension was added to each well of 96-well microculture plates to which 50 μl of the test solution had been added. After culturing at 37° C. in an atmosphere of 5% carbon dioxide for 72 hours, the absorbancy at 550 nm was measured in the same way as the colorimetry using MTT in Experimental Example 1, and the percent suppression was calculated in the same manner as in Experimental Example 14, which was used as the index of cytotoxicity.

[6] = cytotoxicity to tumor cell line PC-6; type: cell-based, human; settings: human, pc-6 cells, read-out: Suppression
Method: as §3, §4

| Structure (SMILES) | IL3 activity ([1]; 0.01 μg/ml) | IL3 activity ([1]; 0.1 μg/ml) | IL3 activity ([1]; 1 μg/ml) | IL3 activity ([1]; 10 μg/ml) | inhibition at 0.01 µg/mL [1] | IL2 activity ([2]; 0.01 μg/ml) | IL2 activity ([2]; 0.1 μg/ml) | IL2 activity ([2]; 1 μg/ml) | IL2 activity ([2]; 10 μg/ml) | inhibition at 0.01 µg/mL ([3]; PWM (1/100), 0.01 μg/ml) | inhibition at 1 µg/mL ([3]; PWM (1/100), 1 μg/ml) | 3H-thymidine uptake ([3]; PWM (1/100), 0.01 μg/ml) | 3H-thymidine uptake ([3]; PWM (1/100), 0.1 μg/ml) | 3H-thymidine uptake ([3]; PWM (1/100), 1 μg/ml) | IL3 activity ([4]; 0.01 μg/ml) | IL3 activity ([4]; 0.1 μg/ml) | IL3 activity ([4]; 1 μg/ml) | IL3 activity ([4]; 10 μg/ml) | Absorbancy ([5]; 0.1 μg/ml) | Absorbancy ([5]; 1.0 μg/ml) | also measured |
| --- | --- | --- | --- | --- | --- | --- | --- | --- | --- | --- | --- | --- | --- | --- | --- | --- | --- | --- | --- | --- | --- |
| CCCCCCC(=O)CCCCCC/C=C/CC(O)C(O)C(N)(CO)C(=O)O (stereo not shown) [Example 1] | 13.9 U/ml | 12.1 U/ml | 9.8 U/ml | < 2 U/ml | 62.2% | 6.5 U/ml | 2.5 U/ml | 1.1 U/ml | < 1 U/ml | 61% | 84.5% | 13499 cpm | 9895 cpm | 6529 cpm | 4.0 U/ml | < 2 U/ml | < 2 U/ml | < 2 U/ml | 0.245 | 0.209 | inhibition at 0.1 µg/mL [1]: 67.1%; inhibition at 1 µg/mL [1]: 73.4%; inhibition at 10 µg/mL [1]: > 95%; inhibition at 0.01 µg/mL [2]: 46.3%; inhibition at 0.1 µg/mL [2]: 79.3%; inhibition at 1 µg/mL [2]: 90.9%; inhibition at 10 µg/mL [2]: > 92%; inhibition at 0.1 µg/mL [3]: 73.2%; inhibition at 0.01 µg/mL [4]: 76.6%; inhibition at 0.1 µg/mL [4]: > 90%; inhibition at 1 µg/mL [4]: > 90%; inhibition at 10 µg/mL [4]: > 90%; Absorbancy ([5]; 0.01 μg/ml): 0.244; Absorbancy ([5]; 10.0 μg/ml): 0.202; Absorbancy ([5]; 100.0 μg/ml): 0.000; cytotoxicity at 72 h ([6]; 0.1 μg/ml): 9.9%; cytotoxicity at 72 h ([6]; 1.0 μg/ml): 23.2%; cytotoxicity at 72 h ([6]; 100.0 μg/ml): 100% |
| CCCCCCC(=O)CCCCCC/C=C/CC1OC(=O)C(N)(CO)C1O (stereo not shown) [Example 4] | 26.0 U/ml | 16.0 U/ml | 8.6 U/ml | 6.1 U/ml | 29.3% | 4.9 U/ml | 2.6 U/ml | < 1 U/ml | < 1 U/ml | 41.4% | 77.1% | 19335 cpm | 9325 cpm | 8712 cpm | 9.1 U/ml | 2.8 U/ml | 2.3 U/ml | < 2 U/ml | 0.247 | 0.273 | inhibition at 0.1 µg/mL ([1]; 0.1 μg/ml): 56.5%; inhibition at 1 µg/mL ([1]; 1 μg/ml): 76.6%; inhibition at 10 µg/mL ([1]; 10 μg/ml): 83.4%; inhibition at 0.01 µg/mL ([2]; 0.01 μg/ml): 59.5%; inhibition at 0.1 µg/mL ([2]; 0.1 μg/ml): 78.5%; inhibition at 1 µg/mL ([2]; 1 μg/ml): > 92%; inhibition at 10 µg/mL ([2]; 10 μg/ml): > 92%; inhibition at 0.1 µg/mL ([3]; PWM (1/100), 0.1 μg/ml): 75.1%; inhibition at 0.01 µg/mL ([4]; 0.01 μg/ml): 46.8%; inhibition at 0.1 µg/mL ([4]; 0.1 μg/ml): 83.6%; inhibition at 1 µg/mL ([4]; 1 μg/ml): 86.5%; inhibition at 10 µg/mL ([4]; 10 μg/ml): > 90%; Absorbancy ([5]; 10.0 μg/ml): 0.271; Absorbancy ([5]; 100.0 μg/ml): 0.014; cytotoxicity at 72 h ([6]; 0.1 μg/ml): 15.1%; cytotoxicity at 72 h ([6]; 1.0 μg/ml): 6.2%; cytotoxicity at 72 h ([6]; 10.0 μg/ml): 6.9%; cytotoxicity at 72 h ([6]; 100.0 μg/ml): 95.2% |
